From patent US20230117034A1, “PYRAZOLOTRIAZINES” (Bayer Aktiengesellschaft, priority 2019, published 2023)

Tests used:
CDK2/CycE = target: T1, CDK2/CycE (Homo sapiens, UniProt P24941); experiment: CDK2/CycE kinase assay (TR-FRET, 2 mM ATP); type: biochemical; details: 2 mM ATP (high ATP); median; read-out: CDK2/CyclinE, 2 mM ATP (high ATP), IC50 (median)
T1 construct: purchased ProQinase GmbH (Freiburg, Germany); host or cells: insect cells (Sf9)
Outline: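 GST-tagged human CDK2 and CycE from Sf9 cells, about 10 ng/ml, pre-incubated 15 min at 22 °C with compound in Tris/HCl pH 8.0 buffer. Reaction with 2 mM ATP and 0.75 µM biotinylated peptide for 25 min at 22 °C. Phospho-RB antibody TR-FRET (665/620 nm ratio) read after 1 h; data normalised to no-inhibitor and no-enzyme controls.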

[1] = system: MDA-MB-231, human breast cancer cells; experiment: Proliferation assay MDA-MB-231 (crystal violet, 4 days); type: cell-based; details: Homo sapiens, MDA-MB-231, 96 h, MDA-MB-231 cells, median, read-out: Prolif-MDA MB-231, IC50-[mol/l] (median)
Outline: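 Plated 4,000 cells/well, 10% FCS; 24 h later treated 0.01-10 µmol/L cpd (DMSO 0.1%), 4 d. Fix glutaraldehyde, stain 0.1% crystal violet pH 3.0, elute acetic acid, A595. Normalized to t0 plate/untreated; 4-param IC50.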

[2] = target: T2, CYCLIN K (nuclear staining in CAL-120 cells) (Homo sapiens, UniProt O75909); experiment: CYCLIN K nuclear protein level: immunofluorescence high content analysis (CAL-120); type: cell-based; details: 24 h, 50% reduction of nuclear CCNK staining intensity, median, read-out: CYCLIN K degradation IF, DC50-[mol/l] (median)
T2 construct: endogenous in cells; host or cells: CAL-120 human breast cancer cells (DSMZ ACC 459)
T2 sequence (O75909 whole entry): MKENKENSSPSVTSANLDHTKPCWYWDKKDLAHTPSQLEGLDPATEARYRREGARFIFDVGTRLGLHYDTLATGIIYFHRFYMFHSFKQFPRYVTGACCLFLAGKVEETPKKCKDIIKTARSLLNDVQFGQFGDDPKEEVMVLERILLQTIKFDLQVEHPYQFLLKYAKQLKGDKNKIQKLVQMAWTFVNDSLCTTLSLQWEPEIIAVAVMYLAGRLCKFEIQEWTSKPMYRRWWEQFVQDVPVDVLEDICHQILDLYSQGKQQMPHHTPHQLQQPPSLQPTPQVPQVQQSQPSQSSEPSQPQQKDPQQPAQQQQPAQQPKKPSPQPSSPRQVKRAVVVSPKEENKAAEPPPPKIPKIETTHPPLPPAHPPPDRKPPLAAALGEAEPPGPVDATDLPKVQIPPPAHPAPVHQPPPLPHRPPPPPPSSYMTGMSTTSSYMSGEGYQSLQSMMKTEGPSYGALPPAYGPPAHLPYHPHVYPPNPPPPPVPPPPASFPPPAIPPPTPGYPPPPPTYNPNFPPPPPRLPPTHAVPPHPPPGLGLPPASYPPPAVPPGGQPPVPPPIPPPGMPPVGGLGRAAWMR
T2 sequence (Q9NYV4 whole entry partner): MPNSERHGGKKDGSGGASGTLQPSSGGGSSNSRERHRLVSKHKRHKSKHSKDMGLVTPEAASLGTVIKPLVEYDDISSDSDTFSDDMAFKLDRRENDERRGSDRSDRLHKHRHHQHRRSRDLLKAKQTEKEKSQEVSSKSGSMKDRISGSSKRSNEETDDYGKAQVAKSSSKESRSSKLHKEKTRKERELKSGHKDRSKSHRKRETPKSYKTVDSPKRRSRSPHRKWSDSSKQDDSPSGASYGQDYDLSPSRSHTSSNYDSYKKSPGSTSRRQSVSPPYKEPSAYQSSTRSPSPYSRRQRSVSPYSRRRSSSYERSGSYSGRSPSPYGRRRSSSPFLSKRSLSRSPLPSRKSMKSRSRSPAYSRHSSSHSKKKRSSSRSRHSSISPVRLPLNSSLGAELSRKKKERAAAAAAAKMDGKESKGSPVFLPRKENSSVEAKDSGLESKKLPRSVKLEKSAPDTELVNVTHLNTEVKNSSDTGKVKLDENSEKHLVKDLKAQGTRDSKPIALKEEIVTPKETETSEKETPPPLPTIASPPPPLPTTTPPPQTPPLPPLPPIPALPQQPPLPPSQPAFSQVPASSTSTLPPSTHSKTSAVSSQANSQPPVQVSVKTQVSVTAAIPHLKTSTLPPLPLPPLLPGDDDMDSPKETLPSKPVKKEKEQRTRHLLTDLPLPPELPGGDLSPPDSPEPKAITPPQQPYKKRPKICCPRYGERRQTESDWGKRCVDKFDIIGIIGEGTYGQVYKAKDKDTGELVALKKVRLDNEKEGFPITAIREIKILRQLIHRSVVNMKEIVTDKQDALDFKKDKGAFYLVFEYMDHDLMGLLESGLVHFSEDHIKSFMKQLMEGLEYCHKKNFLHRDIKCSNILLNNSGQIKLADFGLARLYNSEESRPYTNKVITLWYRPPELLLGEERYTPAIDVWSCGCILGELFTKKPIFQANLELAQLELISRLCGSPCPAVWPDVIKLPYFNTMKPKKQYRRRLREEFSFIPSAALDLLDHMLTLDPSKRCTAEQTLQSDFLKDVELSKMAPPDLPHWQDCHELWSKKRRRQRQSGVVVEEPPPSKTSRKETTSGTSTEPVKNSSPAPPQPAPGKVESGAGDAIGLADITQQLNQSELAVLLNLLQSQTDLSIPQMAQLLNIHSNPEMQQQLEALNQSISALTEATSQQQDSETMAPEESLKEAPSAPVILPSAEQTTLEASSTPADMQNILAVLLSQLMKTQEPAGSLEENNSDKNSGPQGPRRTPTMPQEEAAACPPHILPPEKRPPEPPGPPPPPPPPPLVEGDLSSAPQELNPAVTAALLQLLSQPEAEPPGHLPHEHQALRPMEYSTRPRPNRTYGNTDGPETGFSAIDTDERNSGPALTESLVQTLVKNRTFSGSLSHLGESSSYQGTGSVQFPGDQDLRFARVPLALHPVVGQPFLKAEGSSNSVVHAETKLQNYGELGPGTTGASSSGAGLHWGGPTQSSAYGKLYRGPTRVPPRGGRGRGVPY
Outline: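 CAL-120 breast cancer cells treated in dose-response for 24 h at 37 °C, PFA-fixed and immunostained for cyclin K with Hoechst counterstain. Confocal imaging quantified nuclear intensity; DC50 is the concentration giving 50% reduction of nuclear CCNK staining, normalized to DMSO and control.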

Row | IC50 (CDK2/CycE) | IC50 [1] | DC50 [2] | SMILES
1 | > 20000 nM | 5.94 nM | 0.972 nM | CN1CCN(c2nc(NCc3nc4cc(Cl)c(Cl)cc4[nH]3)n3ncc(C4CC4)c3n2)CC1 [Example 305, 8-cyclopropyl-N-[(5,6-dichloro-1H-benzimidazol-2-yl)methyl]-2-(4-methylpiperazin-1-yl)pyrazolo[1,5-a][1,3,5]triazin-4-amine]
2 | 6450 nM |  | 2.27 nM | COC1CCN(c2nc(NCc3nc4ccccc4[nH]3)n3ncc(Br)c3n2)CC1 [Example 62, N-[(1H-benzimidazol-2-yl)methyl]-8-bromo-2-(4-methoxypiperidin-1-yl)pyrazolo[1,5-a][1,3,5]triazin-4-amine]
3 | 10600 nM |  | 2.85 nM | CC1(C)CN(c2nc(NCc3nnc(-c4ccccc4)[nH]3)n3ncc(Br)c3n2)CCO1 [Example 68, 8-bromo-2-(2,2-dimethylmorpholin-4-yl)-N-[(5-phenyl-4H-1,2,4-triazol-3-yl)methyl]pyrazolo[1,5-a][1,3,5]triazin-4-amine]
4 | 2300 nM |  | 2.45 nM | Fc1ccc(-c2cnc(CNc3nc(N4CCOCC4)nc4c(Br)cnn34)[nH]2)cc1 [Example 66, 8-bromo-N-{[5-(4-fluorophenyl)-1H-imidazol-2-yl]methyl}-2-(morpholin-4-yl)pyrazolo[1,5-a][1,3,5]triazin-4-amine]
5 | 1860 nM |  | 0.814 nM | OCC1COCCN1c1nc(NCc2nc3ccccc3[nH]2)n2ncc(Br)c2n1 (stereo not drawn) [Example 67, (4-{4-[(1H-benzimidazol-2-ylmethyl)amino]-8-bromopyrazolo[1,5-a][1,3,5]triazin-2-yl}morpholin-3-yl)methanol]
6 | 15600 nM |  | 0.381 nM | c1ccc2[nH]c(CNc3nc(N4CCOCC4)nc4c(C5CC5)cnn34)nc2c1 [Example 92, N-[(1H-benzimidazol-2-yl)methyl]-8-cyclopropyl-2-(morpholin-4-yl)pyrazolo[1,5-a][1,3,5]triazin-4-amine]
7 | 6490 nM |  | 4.09 nM | COC(=O)C1CCN(c2nc(NCc3nc4ccccc4[nH]3)n3ncc(Br)c3n2)CC1 [Example 63, methyl 1-(4-{[(1H-benzimidazol-2-yl)methyl]amino}-8-bromopyrazolo[1,5-a][1,3,5]triazin-2-yl)piperidine-4-carboxylate]
8 | 1540 nM |  | 11.7 nM | OC[C@@H]1CCCCN1c1nc(NCc2nnc(-c3ccccc3)[nH]2)n2ncc(Br)c2n1 [Example 70, [(2S)-1-(8-bromo-4-{[(5-phenyl-4H-1,2,4-triazol-3-yl)methyl]amino}pyrazolo[1,5-a][1,3,5]triazin-2-yl)piperidin-2-yl]methanol]
9 | 1790 nM |  | 0.357 nM | Brc1cnn2c(NCc3ncc(-c4ccccn4)[nH]3)nc(N3CCOCC3)nc12 [Example 90, 8-bromo-2-(morpholin-4-yl)-N-{[5-(pyridin-2-yl)-1H-imidazol-2-yl]methyl}pyrazolo[1,5-a][1,3,5]triazin-4-amine]

More lines, now with the values behind:

Row | SMILES | IC50 (CDK2/CycE) | IC50 [1] | DC50 [2]
10 | CN1CCN(c2nc(NCc3nc4cc(C(F)(F)F)ccc4[nH]3)n3ncc(C4CC4)c3n2)CC1 [Example 313, 8-cyclopropyl-2-(4-methylpiperazin-1-yl)-N-{[5-(trifluoromethyl)-1H-benzimidazol-2-yl]methyl}pyrazolo[1,5-a][1,3,5]triazin-4-amine] | > 20000 nM | 15.6 nM | 1.57 nM
11 | CCc1cnn2c(NCc3nc4c(F)c(F)ccc4[nH]3)nc(N3CCN(C)CC3)nc12.O=CO [Example 435, formic acid N-[(4,5-difluoro-1H-benzimidazol-2-yl)methyl]-8-ethyl-2-(4-methylpiperazin-1-yl)pyrazolo[1,5-a][1,3,5]triazin-4-amine] | 5000 nM | 4.25 nM | 0.274 nM
12 | C[C@@H]1CN(c2nc(NCc3nnc(-c4ccccc4)[nH]3)n3ncc(Br)c3n2)C[C@H](C)O1 [Example 78, 8-bromo-2-[(2R,6S)-2,6-dimethylmorpholin-4-yl]-N-[(5-phenyl-4H-1,2,4-triazol-3-yl)methyl]pyrazolo[1,5-a][1,3,5]triazin-4-amine] | 4280 nM |  | 1.61 nM
13 | Clc1cccc(-c2cnc(CNc3nc(N4CCOCC4)nc4c(Br)cnn34)[nH]2)c1 [Example 81, 8-bromo-N-{[5-(3-chlorophenyl)-1H-imidazol-2-yl]methyl}-2-(morpholin-4-yl)pyrazolo[1,5-a][1,3,5]triazin-4-amine] | 4030 nM |  | 3.87 nM
14 | c1ccc(-c2nnc(CNc3nc(N4CCOCC4)nc4c(C5CC5)cnn34)[nH]2)cc1 [Example 93, 8-cyclopropyl-2-(morpholin-4-yl)-N-[(5-phenyl-4H-1,2,4-triazol-3-yl)methyl]pyrazolo[1,5-a][1,3,5]triazin-4-amine] | 10500 nM |  | 17.3 nM
15 | COC1CCN(c2nc(NCc3nnc(-c4ccccc4)[nH]3)n3ncc(Br)c3n2)CC1 [Example 76, 8-bromo-2-(4-methoxypiperidin-1-yl)-N-[(5-phenyl-4H-1,2,4-triazol-3-yl)methyl]pyrazolo[1,5-a][1,3,5]triazin-4-amine] | 8340 nM |  | 8.06 nM
16 | COc1cccc(-c2cnc(CNc3nc(N4CCOCC4)nc4c(Br)cnn34)[nH]2)c1 [Example 80, 8-bromo-N-{[5-(3-methoxyphenyl)-1H-imidazol-2-yl]methyl}-2-(morpholin-4-yl)pyrazolo[1,5-a][1,3,5]triazin-4-amine] | 4040 nM |  | 1.34 nM
17 | CC(C)c1cnn2c(NCc3nc4ccccc4[nH]3)nc(N3CCOCC3)nc12 [Example 1, N-[(1H-benzimidazol-2-yl)methyl]-2-(morpholin-4-yl)-8-(propan-2-yl)pyrazolo[1,5-a][1,3,5]triazin-4-amine] | 5270 nM | 86.4 nM | 11.1 nM
18 | Fc1ccccc1-c1cnc(CNc2nc(N3CCOCC3)nc3c(Br)cnn23)[nH]1 [Example 86, 8-bromo-N-{[5-(2-fluorophenyl)-1H-imidazol-2-yl]methyl}-2-(morpholin-4-yl)pyrazolo[1,5-a][1,3,5]triazin-4-amine] | 1950 nM |  | 0.576 nM
19 | Fc1cccc(-c2cnc(CNc3nc(N4CCOCC4)nc4c(Br)cnn34)[nH]2)c1 [Example 79, 8-bromo-N-{[5-(3-fluorophenyl)-1H-imidazol-2-yl]methyl}-2-(morpholin-4-yl)pyrazolo[1,5-a][1,3,5]triazin-4-amine] | 2300 nM |  | 0.469 nM
